In the NIST ThermoML archive (doi:10.1016/j.jct.2016.10.047):

Experiment: heat capacity at constant pressure per volume; xn = mol fraction of the nth substance listed
Conditions: 102.6 kPa, Liquid, DSC, x1 = 0.08

CCCCCCCC[n+]1ccn(C)c1.F[P-](F)(F)(F)(F)F [1-octyl-3-methylimidazolium hexafluorophosphate] + CC(C)O
Conditions | heat capacity [J/K/m3]
306.1 K | 2358000
306.31 K | 2360000
306.53 K | 2376000
306.74 K | 2371000
306.95 K | 2378000
307.16 K | 2393000
307.38 K | 2371000
307.59 K | 2387000
307.8 K | 2406000
308.01 K | 2407000
308.23 K | 2403000
308.44 K | 2417000
308.65 K | 2426000
308.86 K | 2437000
309.07 K | 2429000
309.29 K | 2462000
309.5 K | 2458000
309.71 K | 2492000
309.92 K | 2498000
310.14 K | 2474000
310.35 K | 2486000
310.56 K | 2543000
310.77 K | 2578000
310.99 K | 2348000
311.2 K | 2313000
311.41 K | 2300000
311.62 K | 2301000
311.83 K | 2289000
312.05 K | 2291000
312.26 K | 2283000
312.47 K | 2282000
312.68 K | 2283000
312.89 K | 2268000
313.11 K | 2279000
313.32 K | 2266000
313.53 K | 2277000
313.74 K | 2270000
313.96 K | 2249000
314.17 K | 2265000
314.38 K | 2249000
314.59 K | 2263000
314.81 K | 2253000
315.02 K | 2254000
315.23 K | 2257000
315.44 K | 2255000
315.65 K | 2262000
315.87 K | 2264000
316.08 K | 2265000
316.29 K | 2248000
316.5 K | 2255000
316.72 K | 2243000
316.93 K | 2245000
317.14 K | 2256000
317.35 K | 2241000
317.57 K | 2246000
317.78 K | 2253000
317.99 K | 2242000
318.2 K | 2249000
318.42 K | 2245000
318.63 K | 2234000
318.84 K | 2249000
319.3 K | 2241000
319.64 K | 2242000
319.98 K | 2241000
320.31 K | 2240000
320.65 K | 2241000
320.99 K | 2241000
321.33 K | 2240000
321.67 K | 2240000
322 K | 2240000
322.34 K | 2241000
322.68 K | 2240000
323.02 K | 2240000
323.36 K | 2240000
323.69 K | 2240000
324.03 K | 2239000
324.37 K | 2239000
324.71 K | 2239000
325.05 K | 2240000
325.38 K | 2240000
325.72 K | 2238000
326.06 K | 2239000
326.4 K | 2239000
326.74 K | 2240000
327.07 K | 2239000
327.41 K | 2241000
327.75 K | 2240000
328.09 K | 2239000
328.43 K | 2240000
328.76 K | 2240000
329.1 K | 2240000
329.44 K | 2240000
329.78 K | 2240000
330.12 K | 2240000
330.46 K | 2241000
330.79 K | 2241000
331.13 K | 2237000
331.47 K | 2242000
331.81 K | 2239000
332.15 K | 2241000
332.48 K | 2241000
332.82 K | 2240000
333.16 K | 2239000
333.5 K | 2240000
333.84 K | 2241000
334.17 K | 2241000
334.51 K | 2241000
334.85 K | 2240000
335.19 K | 2243000
335.53 K | 2243000
335.86 K | 2242000
336.2 K | 2244000
336.54 K | 2243000
336.88 K | 2246000
337.22 K | 2247000
337.56 K | 2248000
337.89 K | 2251000
338.23 K | 2251000
338.57 K | 2254000
338.91 K | 2241000
